Data: paper PMC3639963, “A New Class of Small Molecule Inhibitor of BMP Signaling” (PLoS ONE, 2013)

Experiments:
Test in all cases: Nanosyn kinase profiling
Assay type in all cases: biochemical
Settings in all cases: read-out: Percentage inhibition; for inhibition at 0.1 µM: 0.1 µM inhibitor; for inhibition at 1 µM: 1 µM inhibitor
DAPK1 = target: T1, DAPK1 (Homo sapiens, UniProt P53355)
T1 construct: purchased Nanosyn (enzymatic panel); SGC in-house recombinant human kinases (DSF panel); Invitrogen (ALK1-6)
Procedure, shortened: (§1)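 Percent inhibition of each kinase was measured with the inhibitor at 0.1 µM and at 1 µM, as part of a 200-kinase human selectivity panel.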

CDK3/cycE = target: T2, CDK3/cycE (Homo sapiens, UniProt Q00526)
T2 construct: purchased Nanosyn (enzymatic panel); SGC in-house recombinant human kinases (DSF panel); Invitrogen (ALK1-6)
Procedure, shortened: as §1

AURKA = target: T3, AURKA (Homo sapiens, UniProt O14965)
T3 construct: purchased Nanosyn (enzymatic panel); SGC in-house recombinant human kinases (DSF panel); Invitrogen (ALK1-6)
T3 sequence (O14965 1-403): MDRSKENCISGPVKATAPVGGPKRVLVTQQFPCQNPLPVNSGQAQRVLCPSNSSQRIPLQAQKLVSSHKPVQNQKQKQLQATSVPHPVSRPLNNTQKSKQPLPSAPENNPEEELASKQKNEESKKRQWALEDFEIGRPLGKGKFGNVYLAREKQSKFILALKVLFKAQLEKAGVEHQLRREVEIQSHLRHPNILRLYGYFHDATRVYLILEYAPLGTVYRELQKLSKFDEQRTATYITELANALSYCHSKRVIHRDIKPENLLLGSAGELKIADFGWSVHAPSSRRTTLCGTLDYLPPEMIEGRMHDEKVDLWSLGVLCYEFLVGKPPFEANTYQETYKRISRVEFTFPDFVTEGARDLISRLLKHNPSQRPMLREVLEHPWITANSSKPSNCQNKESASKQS
Procedure, shortened: as §1

CAMK4 = target: T4, CAMK4 (Homo sapiens, UniProt Q16566)
T4 construct: purchased Nanosyn (enzymatic panel); SGC in-house recombinant human kinases (DSF panel); Invitrogen (ALK1-6)
T4 sequence (Q16566 1-473): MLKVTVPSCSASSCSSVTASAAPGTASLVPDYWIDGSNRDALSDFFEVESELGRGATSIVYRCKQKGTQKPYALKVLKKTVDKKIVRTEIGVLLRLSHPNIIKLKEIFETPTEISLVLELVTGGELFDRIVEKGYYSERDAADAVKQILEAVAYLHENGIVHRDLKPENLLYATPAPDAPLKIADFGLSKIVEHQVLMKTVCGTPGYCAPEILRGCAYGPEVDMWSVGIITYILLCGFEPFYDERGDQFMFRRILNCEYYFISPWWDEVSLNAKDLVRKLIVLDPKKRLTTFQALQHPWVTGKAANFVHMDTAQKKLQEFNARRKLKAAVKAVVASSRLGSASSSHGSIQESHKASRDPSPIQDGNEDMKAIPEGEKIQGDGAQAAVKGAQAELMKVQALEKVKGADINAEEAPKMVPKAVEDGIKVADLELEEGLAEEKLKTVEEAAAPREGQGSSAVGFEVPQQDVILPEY
Procedure, shortened: as §1

MST4 = target: T5, MST4 (Homo sapiens, UniProt Q9P289)
T5 construct: purchased Nanosyn (enzymatic panel); SGC in-house recombinant human kinases (DSF panel); Invitrogen (ALK1-6)
Procedure, shortened: as §1

PRKG1 = target: T6, PRKG1 (Homo sapiens, UniProt Q13976)
T6 construct: purchased Nanosyn (enzymatic panel); SGC in-house recombinant human kinases (DSF panel); Invitrogen (ALK1-6)
T6 sequence (Q13976 1-671): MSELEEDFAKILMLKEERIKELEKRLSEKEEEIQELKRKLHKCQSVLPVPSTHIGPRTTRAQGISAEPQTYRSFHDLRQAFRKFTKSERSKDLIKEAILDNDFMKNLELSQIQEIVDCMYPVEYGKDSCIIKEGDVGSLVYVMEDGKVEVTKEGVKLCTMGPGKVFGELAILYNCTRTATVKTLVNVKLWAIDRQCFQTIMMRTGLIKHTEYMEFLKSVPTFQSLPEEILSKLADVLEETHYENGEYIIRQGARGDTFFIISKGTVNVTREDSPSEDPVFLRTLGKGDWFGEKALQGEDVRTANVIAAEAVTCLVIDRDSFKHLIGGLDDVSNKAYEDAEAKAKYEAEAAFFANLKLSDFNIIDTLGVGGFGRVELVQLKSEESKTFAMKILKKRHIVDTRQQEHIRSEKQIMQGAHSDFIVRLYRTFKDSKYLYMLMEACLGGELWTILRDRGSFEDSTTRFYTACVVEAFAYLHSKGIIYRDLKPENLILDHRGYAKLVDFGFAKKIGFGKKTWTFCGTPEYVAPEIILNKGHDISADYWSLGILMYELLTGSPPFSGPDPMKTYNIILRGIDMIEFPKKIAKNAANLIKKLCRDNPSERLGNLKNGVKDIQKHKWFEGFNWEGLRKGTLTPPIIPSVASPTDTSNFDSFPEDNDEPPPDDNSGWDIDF
Procedure, shortened: as §1

ZAP70 = target: T7, ZAP70 (Homo sapiens, UniProt P43403)
T7 construct: purchased Nanosyn (enzymatic panel); SGC in-house recombinant human kinases (DSF panel); Invitrogen (ALK1-6)
T7 sequence (P43403 1-619): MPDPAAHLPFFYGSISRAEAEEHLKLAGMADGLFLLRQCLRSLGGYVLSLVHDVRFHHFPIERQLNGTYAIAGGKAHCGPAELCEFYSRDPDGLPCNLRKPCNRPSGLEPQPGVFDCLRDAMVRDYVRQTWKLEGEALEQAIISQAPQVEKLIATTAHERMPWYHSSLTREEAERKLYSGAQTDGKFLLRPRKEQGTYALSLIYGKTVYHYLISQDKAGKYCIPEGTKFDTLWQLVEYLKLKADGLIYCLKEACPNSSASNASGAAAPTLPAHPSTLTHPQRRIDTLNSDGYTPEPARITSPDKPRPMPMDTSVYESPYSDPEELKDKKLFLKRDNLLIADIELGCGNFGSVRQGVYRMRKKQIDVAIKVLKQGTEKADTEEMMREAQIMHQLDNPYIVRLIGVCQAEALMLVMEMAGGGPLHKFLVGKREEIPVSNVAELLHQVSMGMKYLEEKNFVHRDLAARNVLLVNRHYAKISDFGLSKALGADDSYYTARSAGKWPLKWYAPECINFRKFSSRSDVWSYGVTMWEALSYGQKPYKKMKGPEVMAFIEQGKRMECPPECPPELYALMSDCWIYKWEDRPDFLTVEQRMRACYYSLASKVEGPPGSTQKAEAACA
Procedure, shortened: as §1

T2 sequence (Q00526 whole entry): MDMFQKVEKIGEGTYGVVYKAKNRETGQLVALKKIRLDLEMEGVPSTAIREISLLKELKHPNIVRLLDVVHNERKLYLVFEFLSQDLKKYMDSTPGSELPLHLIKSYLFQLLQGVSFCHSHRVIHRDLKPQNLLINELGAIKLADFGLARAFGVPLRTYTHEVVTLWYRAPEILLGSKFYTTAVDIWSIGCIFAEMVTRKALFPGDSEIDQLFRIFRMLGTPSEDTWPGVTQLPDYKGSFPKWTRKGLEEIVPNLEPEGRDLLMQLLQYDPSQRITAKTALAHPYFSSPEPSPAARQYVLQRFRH
T2 sequence (P24864 whole entry partner): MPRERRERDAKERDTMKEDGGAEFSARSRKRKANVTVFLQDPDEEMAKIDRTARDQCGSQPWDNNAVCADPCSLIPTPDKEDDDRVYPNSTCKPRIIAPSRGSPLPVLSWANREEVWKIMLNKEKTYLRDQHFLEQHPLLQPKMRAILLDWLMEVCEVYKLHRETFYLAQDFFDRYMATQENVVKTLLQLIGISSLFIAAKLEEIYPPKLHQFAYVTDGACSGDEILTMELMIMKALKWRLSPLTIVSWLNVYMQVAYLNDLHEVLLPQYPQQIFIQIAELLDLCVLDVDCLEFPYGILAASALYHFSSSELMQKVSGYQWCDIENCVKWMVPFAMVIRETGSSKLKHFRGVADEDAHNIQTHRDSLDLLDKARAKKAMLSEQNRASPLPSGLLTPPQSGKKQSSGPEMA
T1 sequence (P53355 whole entry): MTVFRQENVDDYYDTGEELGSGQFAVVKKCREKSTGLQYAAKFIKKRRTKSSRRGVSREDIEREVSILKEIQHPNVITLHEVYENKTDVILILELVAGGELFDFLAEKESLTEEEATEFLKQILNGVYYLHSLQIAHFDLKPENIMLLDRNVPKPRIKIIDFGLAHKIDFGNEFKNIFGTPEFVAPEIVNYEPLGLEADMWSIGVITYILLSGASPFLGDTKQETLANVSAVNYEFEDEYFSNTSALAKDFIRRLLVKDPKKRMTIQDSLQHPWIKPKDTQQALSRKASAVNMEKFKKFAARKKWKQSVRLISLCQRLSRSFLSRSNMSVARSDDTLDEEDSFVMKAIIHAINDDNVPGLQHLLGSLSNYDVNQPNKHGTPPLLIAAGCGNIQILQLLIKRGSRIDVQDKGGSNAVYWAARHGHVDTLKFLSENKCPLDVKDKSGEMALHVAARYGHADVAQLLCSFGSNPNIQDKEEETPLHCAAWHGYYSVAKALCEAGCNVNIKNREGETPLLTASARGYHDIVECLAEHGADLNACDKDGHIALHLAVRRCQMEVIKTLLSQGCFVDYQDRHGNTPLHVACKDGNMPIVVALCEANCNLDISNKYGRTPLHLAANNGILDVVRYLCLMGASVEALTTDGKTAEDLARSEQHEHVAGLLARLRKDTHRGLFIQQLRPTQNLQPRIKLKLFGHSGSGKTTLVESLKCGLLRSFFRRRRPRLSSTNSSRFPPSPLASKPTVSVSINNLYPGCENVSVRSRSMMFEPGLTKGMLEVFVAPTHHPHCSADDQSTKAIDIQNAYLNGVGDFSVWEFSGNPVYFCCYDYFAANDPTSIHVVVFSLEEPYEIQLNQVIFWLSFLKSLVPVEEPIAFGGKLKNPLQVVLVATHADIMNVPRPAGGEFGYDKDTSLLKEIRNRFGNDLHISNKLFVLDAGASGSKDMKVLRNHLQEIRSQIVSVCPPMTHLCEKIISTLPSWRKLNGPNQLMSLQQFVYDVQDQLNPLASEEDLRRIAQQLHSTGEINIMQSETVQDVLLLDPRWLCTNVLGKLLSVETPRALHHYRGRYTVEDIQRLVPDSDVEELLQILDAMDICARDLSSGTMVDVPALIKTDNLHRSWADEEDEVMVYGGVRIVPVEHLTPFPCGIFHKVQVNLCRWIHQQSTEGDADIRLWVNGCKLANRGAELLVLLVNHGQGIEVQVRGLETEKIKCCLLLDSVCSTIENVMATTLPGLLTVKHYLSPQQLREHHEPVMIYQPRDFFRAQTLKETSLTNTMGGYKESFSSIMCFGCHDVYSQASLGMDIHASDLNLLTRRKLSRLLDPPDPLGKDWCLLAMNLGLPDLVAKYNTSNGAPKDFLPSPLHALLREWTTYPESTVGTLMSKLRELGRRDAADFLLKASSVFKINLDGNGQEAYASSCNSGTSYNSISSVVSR
T5 sequence (Q9P289 whole entry): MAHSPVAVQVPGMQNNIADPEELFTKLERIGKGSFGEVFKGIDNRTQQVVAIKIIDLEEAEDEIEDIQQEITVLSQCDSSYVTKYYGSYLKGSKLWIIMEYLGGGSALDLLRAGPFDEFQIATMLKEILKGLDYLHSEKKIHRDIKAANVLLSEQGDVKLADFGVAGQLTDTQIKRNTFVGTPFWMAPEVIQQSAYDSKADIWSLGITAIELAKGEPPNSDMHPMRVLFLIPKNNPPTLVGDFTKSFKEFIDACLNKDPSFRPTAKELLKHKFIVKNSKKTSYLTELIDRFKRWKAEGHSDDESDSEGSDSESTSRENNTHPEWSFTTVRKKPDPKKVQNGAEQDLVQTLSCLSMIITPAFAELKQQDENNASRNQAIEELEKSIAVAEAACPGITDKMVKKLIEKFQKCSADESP

Row | Structure (SMILES) | inhibition at 0.1 µM (DAPK1) | inhibition at 1 µM (DAPK1) | inhibition at 0.1 µM (CDK3/cycE) | inhibition at 1 µM (CDK3/cycE) | inhibition at 0.1 µM (AURKA) | inhibition at 1 µM (AURKA) | inhibition at 0.1 µM (CAMK4) | inhibition at 1 µM (CAMK4) | inhibition at 0.1 µM (MST4) | inhibition at 1 µM (MST4) | inhibition at 0.1 µM (PRKG1) | inhibition at 1 µM (PRKG1) | inhibition at 0.1 µM (ZAP70) | inhibition at 1 µM (ZAP70)
1 | COc1cc(-c2cc(-c3cccc(O)c3)cnc2N)cc(OC)c1OC [K02288, 3-[6-amino-5-(3,4,5-trimethoxy-phenyl)-pyridin-3-yl]-phenol] | -1% | -1% | 1.6% | -91% | -2% | -1% | -1% | -1% | 0.4% | 0% | 0.3% | 3.3% | -2% | 1%
2 | c1ccc2c(-c3cnn4cc(-c5ccc(N6CCNCC6)cc5)cnc34)ccnc2c1 [LDN-193189] | 1.5% | 0.4% | 1.6% | 7% | 4.2% | 23% | 0.1% | 0% | -1% | -5% | 1% | 1.2% | 4.7% | 1%
